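Briefly, cells in 96-well plates were exposed to five compound concentrations for 48 h, and endpoints were estimated by linear interpolation. GI50 = concentration required for 50% inhibition of growth.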 Active and inactive are the calls of the source. Cut-off read from the data, not from the text of the source: active = GI50 up to about 1.1 µM and inactive = higher.
Tests used:
Test in all cases: NCI-60 cell line screen, 48 h
HL-60 = system: HL-60
A498 = system: A498
ACHN = system: ACHN
NCI-H23 = system: NCI-H23
IGROV-1 = system: IGROV-1
MDA-MB-231 = system: MDA-MB-231
SNB-19 = system: SNB-19
PC-3 = system: PC-3
HOP-92 = system: HOP-92
COLO 205 = system: COLO 205
MCF7 = system: MCF7
HCC 2998 = system: HCC 2998
M14 = system: M14
BT-549 = system: BT-549
RPMI-8226 = system: RPMI-8226
CCRF-CEM = system: CCRF-CEM
NCI-H226 = system: NCI-H226
786-0 = system: 786-0
UACC-62 = system: UACC-62
HT-29 = system: HT-29
HCT-15 = system: HCT-15
LOX IMVI = system: LOX IMVI
U-251 = system: U-251
SW-620 = system: SW-620
SF-268 = system: SF-268
SK-MEL-5 = system: SK-MEL-5
MDA-MB-435 = system: MDA-MB-435
RXF 393 = system: RXF 393
EKVX = system: EKVX
SK-MEL-2 = system: SK-MEL-2
SF-539 = system: SF-539
Malme-3M = system: Malme-3M
A549 = system: A549
SF-295 = system: SF-295
T47D = system: T47D
CAKI-1 = system: CAKI-1
OVCAR-5 = system: OVCAR-5
HOP-62 = system: HOP-62
NCI-H522 = system: NCI-H522
SK-MEL-28 = system: SK-MEL-28
MOLT-4 = system: MOLT-4
KM12 = system: KM12
NCI-H460 = system: NCI-H460
Hs-578T = system: Hs-578T
DU-145 = system: DU-145
K562 = system: K562
SNB-75 = system: SNB-75
HCT-116 = system: HCT-116
OVCAR-4 = system: OVCAR-4
TK-10 = system: TK-10
SN12C = system: SN12C
SK-OV-3 = system: SK-OV-3
UACC-257 = system: UACC-257
SR = system: SR
OVCAR-3 = system: OVCAR-3
OVCAR-8 = system: OVCAR-8
MDA-N = system: MDA-N
NCI/ADR-RES = system: NCI/ADR-RES
UO-31 = system: UO-31

O=[N+]([O-])c1ccc(C2ON=C(c3ccccc3)N2C23CC4CC(CC(C4)C2)C3)cc1 (stereo unspecified)
GI50 (HL-60): > 10 µM (inactive)
GI50 (A498): > 10 µM (inactive)
GI50 (ACHN): > 10 µM (inactive)
GI50 (NCI-H23): > 10 µM (inactive)
GI50 (IGROV-1): > 10 µM (inactive)
GI50 (MDA-MB-231): > 10 µM (inactive)
GI50 (SNB-19): > 10 µM (inactive)
GI50 (PC-3): > 10 µM (inactive)
GI50 (HOP-92): > 10 µM (inactive)
GI50 (COLO 205): > 10 µM (inactive)
GI50 (MCF7): > 10 µM (inactive)
GI50 (HCC 2998): > 10 µM (inactive)
GI50 (M14): > 10 µM (inactive)
GI50 (BT-549): > 10 µM (inactive)
GI50 (RPMI-8226): > 10 µM (inactive)
GI50 (CCRF-CEM): > 10 µM (inactive)
GI50 (NCI-H226): > 10 µM (inactive)
GI50 (786-0): > 10 µM (inactive)
GI50 (UACC-62): > 10 µM (inactive)
GI50 (HT-29): > 10 µM (inactive)
GI50 (HCT-15): > 10 µM
GI50 (LOX IMVI): > 10 µM (inactive)
GI50 (U-251): 6.35 µM (inactive)
GI50 (SW-620): > 10 µM (inactive)
GI50 (SF-268): > 10 µM (inactive)
GI50 (SK-MEL-5): > 10 µM (inactive)
GI50 (MDA-MB-435): > 10 µM (inactive)
GI50 (RXF 393): > 10 µM (inactive)
GI50 (EKVX): > 10 µM (inactive)
GI50 (SK-MEL-2): > 10 µM (inactive)
GI50 (SF-539): 2.89 µM (inactive)
GI50 (Malme-3M): > 10 µM (inactive)
GI50 (A549): > 10 µM (inactive)
GI50 (SF-295): > 10 µM (inactive)
GI50 (T47D): > 10 µM (inactive)
GI50 (CAKI-1): > 10 µM (inactive)
GI50 (OVCAR-5): > 10 µM (inactive)
GI50 (HOP-62): > 10 µM (inactive)
GI50 (NCI-H522): > 10 µM (inactive)
GI50 (SK-MEL-28): > 10 µM (inactive)
GI50 (MOLT-4): > 10 µM (inactive)
GI50 (KM12): > 10 µM (inactive)
GI50 (NCI-H460): > 10 µM (inactive)
GI50 (Hs-578T): 6.75 µM (inactive)
GI50 (DU-145): > 10 µM (inactive)
GI50 (K562): > 10 µM (inactive)
GI50 (SNB-75): 5.6 µM (inactive)
GI50 (HCT-116): > 10 µM (inactive)
GI50 (OVCAR-4): > 10 µM (inactive)
GI50 (TK-10): > 10 µM (inactive)
GI50 (SN12C): > 10 µM (inactive)
GI50 (SK-OV-3): > 10 µM (inactive)
GI50 (UACC-257): > 10 µM (inactive)
GI50 (SR): > 10 µM (inactive)
GI50 (OVCAR-3): > 10 µM (inactive)
GI50 (OVCAR-8): > 10 µM (inactive)
GI50 (MDA-N): > 10 µM (inactive)
GI50 (NCI/ADR-RES): > 10 µM (inactive)

COc1ccccc1NC(=O)CC(=O)NN
GI50 (HL-60): > 100 µM (inactive)
GI50 (A498): > 100 µM (inactive)
GI50 (ACHN): > 100 µM (inactive)
GI50 (NCI-H23): > 100 µM (inactive)
GI50 (IGROV-1): > 100 µM (inactive)
GI50 (MDA-MB-231): > 100 µM (inactive)
GI50 (SNB-19): > 100 µM (inactive)
GI50 (PC-3): > 100 µM (inactive)
GI50 (HOP-92): > 100 µM (inactive)
GI50 (COLO 205): > 100 µM (inactive)
GI50 (MCF7): > 100 µM (inactive)
GI50 (HCC 2998): 11.9 µM (inactive)
GI50 (BT-549): > 100 µM (inactive)
GI50 (RPMI-8226): > 100 µM (inactive)
GI50 (CCRF-CEM): > 100 µM (inactive)
GI50 (NCI-H226): > 100 µM (inactive)
GI50 (786-0): > 100 µM (inactive)
GI50 (UACC-62): > 100 µM (inactive)
GI50 (HT-29): > 100 µM (inactive)
GI50 (HCT-15): > 100 µM
GI50 (LOX IMVI): > 100 µM (inactive)
GI50 (U-251): > 100 µM (inactive)
GI50 (SW-620): > 100 µM (inactive)
GI50 (SF-268): > 100 µM (inactive)
GI50 (SK-MEL-5): > 100 µM (inactive)
GI50 (MDA-MB-435): > 100 µM (inactive)
GI50 (RXF 393): > 100 µM (inactive)
GI50 (EKVX): > 100 µM (inactive)
GI50 (SK-MEL-2): > 100 µM (inactive)
GI50 (SF-539): > 100 µM (inactive)
GI50 (Malme-3M): > 100 µM (inactive)
GI50 (A549): > 100 µM (inactive)
GI50 (SF-295): > 100 µM (inactive)
GI50 (T47D): > 100 µM (inactive)
GI50 (CAKI-1): > 100 µM (inactive)
GI50 (OVCAR-5): > 100 µM (inactive)
GI50 (HOP-62): > 100 µM (inactive)
GI50 (NCI-H522): > 100 µM (inactive)
GI50 (SK-MEL-28): > 100 µM (inactive)
GI50 (MOLT-4): > 100 µM (inactive)
GI50 (KM12): > 100 µM (inactive)
GI50 (NCI-H460): > 100 µM (inactive)
GI50 (Hs-578T): > 100 µM (inactive)
GI50 (DU-145): > 100 µM (inactive)
GI50 (K562): > 100 µM (inactive)
GI50 (SNB-75): > 100 µM (inactive)
GI50 (HCT-116): > 100 µM (inactive)
GI50 (OVCAR-4): > 100 µM (inactive)
GI50 (TK-10): > 100 µM (inactive)
GI50 (UO-31): > 100 µM (inactive)
GI50 (SN12C): > 100 µM (inactive)
GI50 (SK-OV-3): > 100 µM (inactive)
GI50 (UACC-257): > 100 µM (inactive)
GI50 (SR): > 100 µM (inactive)
GI50 (OVCAR-3): > 100 µM (inactive)
GI50 (OVCAR-8): > 100 µM (inactive)
GI50 (MDA-N): > 100 µM (inactive)
GI50 (NCI/ADR-RES): 9.77 µM (inactive)
